Where “and” joins values, the source holds several entries; their conditions need not be identical. Equal values may be shown once. Inconclusive results and toxic doses are left out.

The source of these data is PubChem BioAssay AID330 (DTP/NCI, 2004).

For the experiment, the system named is P388 leukemia ip, CD2F1 mice, survival T/C. As to the kind of experiment: NCI In Vivo Anticancer Drug Screen. Data for tumor model P388 Leukemia (intraperitoneal) in CD2F1 (CDF1) mice. To be noted: endpoint: median survival time, higher = longer survival. In outline:
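Mice carrying the transplanted tumor received test compound or vehicle. Survival was recorded in each group, and the value is the treated-group measurement divided by that of the vehicle-treated control group.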

Where [1] appears, read: dose: 60.0 mg/kg/injection, schedule: Q01DX005 (ip), vehicle: saline with Tween-80.
Setting [2] is: dose: 120.0 mg/kg/injection, schedule: Q01DX005 (ip), vehicle: saline with Tween-80.
[3] abbreviates: dose: 240.0 mg/kg/injection, schedule: Q01DX005 (ip), vehicle: saline with Tween-80.
The mark [4] stands for this setting: dose: 25.0 mg/kg/injection, schedule: Q01DX005 (ip), vehicle: Klucel (hydroxypropylcellulose) (HPC).
Setting [5] is: dose: 50.0 mg/kg/injection, schedule: Q01DX005 (ip), vehicle: Klucel (hydroxypropylcellulose) (HPC).
Setting [6] is: dose: 100.0 mg/kg/injection, schedule: Q01DX005 (ip), vehicle: Klucel (hydroxypropylcellulose) (HPC).
Where [7] appears, read: dose: 200.0 mg/kg/injection, schedule: Q01DX005 (ip), vehicle: Klucel (hydroxypropylcellulose) (HPC).
The mark [8] stands for this setting: dose: 100.0 mg/kg/injection, schedule: Q01DX001 (ip), vehicle: saline with Tween-80.
[9] abbreviates: dose: 200.0 mg/kg/injection, schedule: Q01DX001 (ip), vehicle: saline with Tween-80.
Setting [10] is: dose: 400.0 mg/kg/injection, schedule: Q01DX001 (ip), vehicle: saline with Tween-80.
Where [11] appears, read: dose: 50.0 mg/kg/injection, schedule: Q01DX005 (ip), vehicle: saline.
Where [12] appears, read: dose: 100.0 mg/kg/injection, schedule: Q01DX005 (ip), vehicle: saline.

Regarding `Cc1ccc(S(=O)(=O)N2CCC2)cc1`, the T/C reads like this: (dose: 100.0 mg/kg/injection, schedule: Q01DX009 (ip), vehicle: saline with Tween-80) 90 % of control; (dose: 200.0 mg/kg/injection, schedule: Q01DX009 (ip), vehicle: saline with Tween-80) 95 % of control; (dose: 400.0 mg/kg/injection, schedule: Q01DX009 (ip), vehicle: saline with Tween-80) 100 % of control.
In the case of `CC1(c2ccccc2)CCC(=O)NC1=O` (configuration not stated), the T/C reads like this: under setting [1], 102 % of control; under setting [2], 101 % of control; under setting [3], 106 % of control.
For the compound `COc1ccc2ccc3c(c2c1)C(=O)CC3`, the T/C is, setting by setting: (dose: 12.5 mg/kg/injection, schedule: Q01DX009 (ip), vehicle: distilled water + Tween-80) 101 % of control; (dose: 25.0 mg/kg/injection, schedule: Q01DX009 (ip), vehicle: distilled water + Tween-80) 98 % of control; (dose: 50.0 mg/kg/injection, schedule: Q01DX009 (ip), vehicle: distilled water + Tween-80) 107 % of control; (dose: 100.0 mg/kg/injection, schedule: Q01DX009 (ip), vehicle: distilled water + Tween-80) 98 % of control; (dose: 200.0 mg/kg/injection, schedule: Q01DX009 (ip), vehicle: distilled water + Tween-80) 98 % of control.
Consider `COC1=C(C)C(=O)c2c(c(COC(N)=O)c3n2CC2C3N2C)C1=O` (configuration not stated), for which the T/C (dose: 6.25 mg/kg/injection, schedule: Q04DX003 (ip), vehicle: saline with Tween-80) was 100 % of control and the T/C (dose: 12.5 mg/kg/injection, schedule: Q04DX003 (ip), vehicle: saline with Tween-80) is 90 % of control.
As to `COc1cc2c(c(OC)c1OC)-c1ccc(OC)c(=O)cc1[C@@H](N(C)C(C)=O)CC2`, the T/C is, setting by setting: (dose: 0.31 mg/kg/injection, schedule: Q01DX009 (ip), vehicle: Klucel (hydroxypropylcellulose) (HPC)) 157 % of control and 187 % of control; (dose: 0.62 mg/kg/injection, schedule: Q01DX009 (ip), vehicle: Klucel (hydroxypropylcellulose) (HPC)) 181 % of control.
For the compound `c1ccc2c(c1)Nc1ccccc1O2`, the T/C runs as follows: under setting [4], 98 % of control; under setting [5], 91 % of control; under setting [6], 100 % of control; under setting [7], 99 % of control.
Regarding `Cc1nn(C(N)=S)c(C)c1N=Nc1cccc(Cl)c1Cl`, the T/C is 100 % of control (dose: 100.0 mg/kg/injection, schedule: Q04DX002 (ip), vehicle: Klucel (hydroxypropylcellulose) (HPC)); 96 % of control (dose: 200.0 mg/kg/injection, schedule: Q04DX002 (ip), vehicle: Klucel (hydroxypropylcellulose) (HPC)); 92 % of control (dose: 400.0 mg/kg/injection, schedule: Q04DX002 (ip), vehicle: Klucel (hydroxypropylcellulose) (HPC)).
In the case of `CCOC(=O)c1n[nH]nc1Nc1cncc(Nc2n[nH]nc2C(=O)OCC)n1`, the T/C runs as follows: (dose: 60.0 mg/kg/injection, schedule: Q01DX005 (ip), vehicle: Klucel (hydroxypropylcellulose) (HPC)) 102 % of control; (dose: 120.0 mg/kg/injection, schedule: Q01DX005 (ip), vehicle: Klucel (hydroxypropylcellulose) (HPC)) 97 % of control; (dose: 240.0 mg/kg/injection, schedule: Q01DX005 (ip), vehicle: Klucel (hydroxypropylcellulose) (HPC)) 97 % of control.
Regarding `COC(=O)/C(=C/C=C/c1ccccc1)N=[N+]=[N-]`, the T/C under setting [8] is 114 % of control, the T/C under setting [9] was 105 % of control and the T/C under setting [10] is 100 % of control.
Regarding `O=C(O)C1C2OC(C(Cl)C2Cl)C1C(=O)O` (configuration not stated), the T/C reads like this: (dose: 15.0 mg/kg/injection, schedule: Q01DX005 (ip), vehicle: saline) 97 % of control; (dose: 30.0 mg/kg/injection, schedule: Q01DX005 (ip), vehicle: saline) 94 % of control; (dose: 60.0 mg/kg/injection, schedule: Q01DX005 (ip), vehicle: saline) 95 % of control; (dose: 120.0 mg/kg/injection, schedule: Q01DX005 (ip), vehicle: saline) 87 % of control.
For `COc1cc(NCCN(CC(C)C)C2CCCC2)c2ncccc2c1`, the T/C runs as follows: (dose: 12.5 mg/kg/injection, schedule: Q01DX005 (ip), vehicle: saline) 100 % of control and 106 % of control; (dose: 25.0 mg/kg/injection, schedule: Q01DX005 (ip), vehicle: saline) 100 % of control and 114 % of control; under setting [11], 101 % of control and 103 % of control and 106 % of control; under setting [12], 121 % of control and 90 % of control and 96 % of control.
For `CC(c1ccccc1)N1OC1(C)C` (configuration not stated), the T/C by setting is: (dose: 12.5 mg/kg/injection, schedule: Q01DX005 (ip), vehicle: Klucel (hydroxypropylcellulose) (HPC)) 101 % of control; under setting [4], 106 % of control; under setting [5], 102 % of control.
On to `c1ccc(-c2cc(-c3ccccc3)o/c(=N/n3cnnc3)c2)cc1`, for which the T/C was 99 % of control under setting [5], 89 % of control under setting [6] and 89 % of control under setting [7].
On to `O=C(O)c1c[n+]([O-])ccc1OCc1ccccc1`, for which the T/C runs as follows: (dose: 100.0 mg/kg/injection, schedule: Q04DX003 (ip), vehicle: saline) 100 % of control; (dose: 200.0 mg/kg/injection, schedule: Q04DX003 (ip), vehicle: saline) 98 % of control; (dose: 400.0 mg/kg/injection, schedule: Q04DX003 (ip), vehicle: saline) 94 % of control.
On to `C1=CC2(C=CCC1)OCCO2`, for which the T/C (dose: 50.0 mg/kg/injection, schedule: Q01DX005 (ip), vehicle: saline with Tween-80) was 121 % of control.
Consider `[Co].[N-]=C=S.[N-]=C=S.[N-]=C=S.[NH2-].[NH2-].[NH2-]`, for which the T/C is 101 % of control (dose: 50.0 mg/kg/injection, schedule: Q01DX001 (ip), vehicle: saline with Tween-80); 96 % of control under setting [11]; 99 % of control and 94 % of control under setting [8]; 113 % of control under setting [12]; 98 % of control and 106 % of control under setting [9]; 98 % of control under setting [10].
As to `NC(CCCCNc1ccc([N+](=O)[O-])cc1[N+](=O)[O-])C(=O)NC(Cc1ccc(O)cc1)C(=O)O` (configuration not stated), the T/C (dose: 50.0 mg/kg/injection, schedule: Q01DX005 (ip), vehicle: saline + Tween-80 + alcohol) is 101 % of control; the T/C (dose: 100.0 mg/kg/injection, schedule: Q01DX005 (ip), vehicle: saline + Tween-80 + alcohol) is 101 % of control; the T/C (dose: 200.0 mg/kg/injection, schedule: Q01DX005 (ip), vehicle: saline + Tween-80 + alcohol) is 103 % of control.
Consider `O=C(O)CCCCc1ccc(CCCCC(=O)O)cc1`, for which the T/C is 106 % of control (dose: 18.75 mg/kg/injection, schedule: Q04DX003 (ip), vehicle: Klucel (hydroxypropylcellulose) (HPC)); 111 % of control (dose: 37.5 mg/kg/injection, schedule: Q04DX003 (ip), vehicle: Klucel (hydroxypropylcellulose) (HPC)); 113 % of control (dose: 75.0 mg/kg/injection, schedule: Q04DX003 (ip), vehicle: Klucel (hydroxypropylcellulose) (HPC)).
`O=C(CCCCCCCCC(=O)NO)NO`: the T/C is 96 % of control under setting [1], 100 % of control under setting [2] and 100 % of control under setting [3].
In the case of `O=C1C=CC(=O)N1c1ccc(O)cc1`, the T/C is, setting by setting: (dose: 1.25 mg/kg/injection, schedule: Q01DX009 (ip), vehicle: saline sonified) 95 % of control; (dose: 2.5 mg/kg/injection, schedule: Q01DX009 (ip), vehicle: saline sonified) 95 % of control.
Consider `CS(=O)(=O)OCCN(CCOS(C)(=O)=O)c1ccc(C=Nc2ccc(-c3csc(Cc4ccccc4)n3)cc2)cc1`, for which the T/C (dose: 6.25 mg/kg/injection, schedule: Q01DX009 (ip), vehicle: saline) is 115 % of control; the T/C (dose: 12.5 mg/kg/injection, schedule: Q01DX009 (ip), vehicle: saline) is 110 % of control; the T/C (dose: 12.5 mg/kg/injection, schedule: Q01DX009 (ip), vehicle: suspension in saline) is 163 % of control; the T/C (dose: 25.0 mg/kg/injection, schedule: Q01DX009 (ip), vehicle: suspension in saline) is 164 % of control; the T/C (dose: 50.0 mg/kg/injection, schedule: Q01DX009 (ip), vehicle: saline) was 153 % of control; the T/C (dose: 50.0 mg/kg/injection, schedule: Q01DX009 (ip), vehicle: suspension in saline) is 174 % of control.
Consider `Cc1cc(C)nc(NCCCCCCNc2nc(C)cc(C)n2)n1`, for which the T/C is 101 % of control (dose: 100.0 mg/kg/injection, schedule: Q04DX003 (ip), vehicle: saline with Tween-80); 90 % of control (dose: 200.0 mg/kg/injection, schedule: Q04DX003 (ip), vehicle: saline with Tween-80); 92 % of control (dose: 400.0 mg/kg/injection, schedule: Q04DX003 (ip), vehicle: saline with Tween-80).
